From patent publication US20090048292A1, “SYNERGISTIC COMBINATION” (priority 2007, published 2009)
“And” between values parts separate entries of the source, which are not always exact repeats. Equal values may be shown once.

Key:
[1] = system: human SK-Mel28 melanoma cells; experiment: Different angiogenesis inhibitors as monotherapy in human melanoma model SK-Mel28 (FIG. 1); format: in vivo; settings: daily treatment from tumor size 20-30 mm^2; ZK261991 orally 50 mg/kg per day
Experimental: Human SK-MeI 28 melanoma cells were cultivated in RPMI1640 medium together with 1% glucose and 10% foetal calf serum. 3 million cells per animal have been transferred to NMRI nu/nu nude mice in a volume of 0,1 ml in a 1:1 mixture consisting of media and matri gel. With achieving the tumor size of about 20 mm^2, in this case on day 3, the treatment of the animals has been started.
In a human melanoma model SK-Mel28 different angiogenesis inhibitors have been tested. […] In this experiment the tumor have been daily treated with different compounds beginning after establishment of the tumors, respectively at a size of 20-30 mm^2. The compound ZK261991 was orally applied in a dosage of 50 mg/kg per day and in a volume of 0.1 ml/10 g body weight, as a 5% DMSO/Ethanol 1:1 mixture in 0.085 Myrj85®/0.9% NaCl formulation. ZK222584 (PTK/ZK, Vatalanib) comprised in the same formulation was applied. Further Bay43-9006 (Nexavar®) in 30% hydroxy propyl cyclodextrine (HP-β-CD), pH 5.0 in the same volume of 0.1 ml/10 g body weight was applied. […] However, no reaction could be determined with a dosage of 5 and 10 mg/kg (s. FIG. 2). The tumors have been treated in a daily manner with different MS-275 dosages, beginning with the set up at a size of ca. 20-30 mm^2. MS-275 was applied in 30% hydroxypropyl cyclodextrine (HP-β-CD), pH5.0, in a volume of 0.1 ml/10 g body weight.

[2] = system: Human SK-MeI 28 melanoma cells; experiment: Combination study of ZK 261991 and MS-275 in human SK-Mel 28 melanoma model in NMRI nu/nu nude mice (tumor area, tumor weight); format: in vivo; settings: for Tumor area on day 57, average: group average; for Tumor area of the single studied groups on day 57: single animals
Experimental: For this, the animals have been randomized and separated into the following test group (8 animals per group, each):
MS-275; 10 mg/kg/day 3. […] Untreated control (these animals received the solution solvent, only)
The compounds are orally daily applied via a probang till the end of the experiment on day 57. The tumor size was determined (length×width) after 6-7 days. On day 57, the animals were sacrificed by breaking the neck and the tumors were isolated. The weight of the tumors was determined. The tumor size (tumor area in mm^2) was inserted into a diagram, as function of the time. An average of the tumor weight of each group was calculated, as well as the variation and was inserted into a diagram. In the same time interval the tumor size was determined, also the body weight was determined by balancing. The data were inserted in a diagram as function of the time.
The tumors were treated in a daily manner with the different compounds beginning with the establishment, at a size of ca. 20.30 mm^2. […] For the calculation of the statistically signification the SigmaStat-programm with the One-Way-ANOVA-analysis was used.
For the calculation of the statistically significance the SigmaStat-program with a One-Way-ANOVA-analysis was used.

[3] = day 57, ZK261991 50 mg/kg/day, MS-275 10 mg/kg/day, oral daily, alone or combined

SMILES: CNC(=O)c1cc(Oc2ccc(NC(=O)Nc3ccc(Cl)c(C(F)(F)F)c3)cc2)ccn1 [Bay43-9006]
- inhibitory effect onto the tumor growth, FIG. 1 [1]: No inhibitory effect

SMILES: Nc1ccccc1NC(=O)c1ccc(CNC(=O)OCc2cccnc2)cc1 [MS-275, 3-pyridylmethyl-N-{4-[(2-amino-phenyl)-carbamoyl]benzyl}carbamate]
- reduction of the tumor weight in comparison to the untreated control (percentage of inhibition) [2, 3]: 0%
- Tumor area on day 57, average ([2]; MS-275 10 mg/kg/day oral daily, day 57): 135.7 mm^2
- Tumor area of the single studied groups on day 57 ([2]; MS-275 10 mg/kg/day oral daily, day 57, 10 mg/kg/day): 132.1 mm^2 and 169.1 mm^2 and 142.9 mm^2 and 128.6 mm^2 and 169.2 mm^2 and 104.2 mm^2 and 112.1 mm^2 and 127.2 mm^2

SMILES: Clc1ccc(Nc2nnc(Cc3ccncc3)c3ccccc23)cc1 [ZK222584, Vatalanib]
- inhibitory effect onto the tumor growth, FIG. 1 [1]: No inhibitory effect

SMILES: CN(C)C(=O)Nc1cc(CNc2ccccc2C(=O)Nc2ccc3cn(C)nc3c2)ccn1 [ZK 261991, N′2′-{[2-(3,3-Dimethylureido)pyridine-4-yl]methyl}-N-(2-methyl-2H-indazol-6-yl)Anthranilamid]
- inhibitory effect onto the tumor growth, FIG. 1 [1]: No inhibitory effect
- reaction of tumor growth (tumor area) to treatment, FIG. 3 ([2]; daily oral treatment, ZK261991 50 mg/kg/day, MS-275 10 mg/kg, alone or combined, One-Way-ANOVA): statistically significant but moderate result
- T/C value (tumor weight) [2, 3]: 0.55
- reduction of the tumor weight in comparison to the untreated control (percentage of inhibition) [2, 3]: 45%
- Tumor area on day 57, average ([2]; ZK 261991 50 mg/kg/day oral daily, day 57): 104.7 mm^2
- Tumor area of the single studied groups on day 57 ([2]; ZK 261991 50 mg/kg/day oral daily, day 57, 50 mg/kg/day): 109.5 mm^2 and 100.1 mm^2 (2×) and 105.0 mm^2 and 118.8 mm^2 and 88.8 mm^2 and 116.3 mm^2 and 98.9 mm^2
